In PMC4121097, “Glioma-Associated Antigen HEATR1 Induces Functional Cytotoxic T Lymphocytes in Patients with Glioma” (Journal of Immunology Research, 2014):

Experiments:
[1] = target: T1, HLA-A∗02:01 on T2 cells (Homo sapiens, UniProt P04439, D140Y/D185E/D98H/E176V/E277Q/G131W/G231S/I119V/I121R/I166T/I218V/L300P/L318F/N151K/N90K/P208A/P217A/Q86G/Q94H/R138H/R169H/T345S); assay: T2-cell-peptide binding test (peptide-induced HLA-A∗02:01 expression, flow cytometry); settings: peptide 20 μg/mL; for affinity for binding to HLA-A∗02 (in words): 4 h, Figure 2(b); for percentage of MFI increase of HLA-A∗02:01: 4 h in SFM, BB7.2 anti-HLA-A∗02:01 mAb, mean ± SE of three independent experiments, SEM
T1 construct: measuring peptide-induced expression of HLA-A∗02:01 on T2 cells using flow cytometry; host or cells: T2 cells (human, TAP1/TAP2-deficient)
Protocol: The binding activity of selected peptides to the HLA-A∗02 molecule was determined semiquantitatively by measuring peptide-induced expression of HLA-A∗02:01 on T2 cells using flow cytometry. The T2 cells were incubated for 4 h with the candidate peptides, respectively, at a concentration of 20 μg/mL in SFM. After being washed with phosphate buffered saline-fetal calf serum (PBS-FCS), the T2 cells were incubated with supernatant containing murine mAb against HLA-A∗02:01 derived from BB7.2 cells for 30 min at 4°C. The T2 cells were washed twice with PBS-FCS and stained with 5 μg/mL diluted fluorescein isothiocyanate-conjugated immunoglobulin G which reacts to mouse immunoglobulin for 30 min. The cells were then rinsed three times with PBS-FCS and analyzed using a FACSAria flow cytometer. The percent mean fluorescence index (% MFI) increase of HLA-A∗02:01 molecules was calculated as follows: % MFI increase = [(MFI with peptide − MFI without peptide)]/(MFI without peptide) × 100 [27].

[2] = system: PBMCs from healthy donors and patients with glioma; assay: IFN-γ ELISpot assay with PBMCs; format: cell-based, human; settings: PBMCs from five HLA-A∗02+ patients with GBM and one control patient with benign tumor, Figure 4
Protocol: A human IFN-γ ELISpot kit (552138; BD Pharmingen, CA) was used to quantify the CTL response in PBMCs. Several 96-well plates were coated with purified anti-human IFN-γ monoclonal antibodies at the concentration of 5 μg/mL at 100 μL/well and incubated at 4°C overnight and then washed once with 200 μL/well of RPMI-1640 containing 10% FBS and 1% penicillin-streptomycin-L-glutamine (R10) and blocked with 200 μL/well R10 for 2 h at room temperature. PBMCs were then washed twice with R10 and resuspended in R10 complete culture medium. After being counted, the cells were then adjusted to the concentration of 1 × 10^6 cells/mL and plated onto a 96-well ELISpot plate at 50 μL/well (5 × 10^4 cells/well) with the addition of 50 μL of the peptide. The final concentration of each peptide was 5 μg/mL. The 96-well ELISpot plates were incubated for about 20 h at 37°C in 5% CO2. After incubation, the ELISpot plates were developed according to the kit instructions. Finally, the plates were air-dried and the resulting spots were counted with ChampSpot IV Bioreader (Beijing SAGE Creation Science, Beijing, China). Peptide-specific IFN-γ ELISpot responses were considered positive only when the number of spots was twofold greater than the control peptide stimulation and there were >50 spots per 1 × 10^6 PBMCs.

Sequence	affinity for binding to HLA-A∗02 (in words) [1]	percentage of MFI increase of HLA-A∗02:01 [1]	ELISpot response to individual peptide (in words) [2]
FLFDTQHFI [HEATR1_2003–2011]	lower affinity	–	–
FLWILLILL [HEATR1_1411–1419]	lowest affinity	–	–
KLLRMLFDL [HEATR1_1126–1134]	–	287.2 ± 7.7%	higher than the others
KMVEDLISV [HEATR1_682–690]	highest affinity	308.5 ± 4.8%	higher than the others
LLPESIPFL [HEATR1_2102–2110]	–	285.2 ± 49.2%	–
LMLDRGIPV [HEATR1_757–765]	–	228.7 ± 5.4%	highest ELISpot response
